From US20040132779A1, “Microsomal Triglyceride transfer protein inhibitor” (Pfizer Inc, priority 2002, published 2004)

Test: Reduction of food intake assay
Assay type: in vivo
Settings: beagles, oral gavage, 0.1, 0.25 or 0.5 mg/kg, Days 0 to 6
Protocol: Reduction of Food Intake Assay
Healthy, young adult (1-3 years of age) male and female beagles (Marshall Farms, North Rose, New York, N.Y. 14516) weighing 13-18 kg at the start of the treatment period are employed as test subjects.
The test compound is provided as a powder. The dosing solution, administered by oral gavage, is provided employing a 70/30 polyethylene glycol 400/water solution as the test vehicle. The dosing solution is prepared at 0.1 to 0.5 mg/ml activity so that 1 ml is delivered per kg body weight at dosages of 0.1 to 0.5 mg/kg. Following a seven day acclimation period, a ten day evaluation study is effected.
The study consists of three groups of animals containing 2 male and 2 female dogs, each. Each group of four animals is randomly assigned to receive 0.1, 0.25 or 0.5 mg/kg test compound. On Days 0 to 6, each dog receives the dosing solution administered as a single dose at Time 0 on each dosing day via a feeding tube. This is followed by a 10 ml water rinse to ensure total delivery of dosing solution. Each test animal is permitted ad libitum access to water and IAMS Mini-Chunks® (The Iams Company, P.O. Box 14597, Dayton, Ohio) dry food each day during the study and approximately 0.5-1 hours post-dose.

**Q.** Which results are given for `Cc1cc(CNC(=O)[C@@H](NC(=O)C(F)(F)F)c2ccccc2)ccc1NC(=O)c1ccccc1-c1ccc(C(F)(F)F)cc1` [Example 1A-1, (S) 4′-Trifluoromethyl-biphenyl-2-carboxylic Acid (2-methyl-4-{[2-phenyl-2-(2,2,2-trifluoro-acetylamino)-acetylamino]-methyl}-phenyl)-amide]?
**A.** body weight: reduction in body weight; fecal fat: increased fecal fat; food intake: reduction in food intake; serum cholesterol: reduction in serum cholesterol
